Test results reported in patent US20090304606A1, “Method for removing debris from tooth and bone surface using irrigation solution” (priority 2006, published 2009).

Assay: Effect of surfactants on stability of citric acid solutions, accelerated aging on a hot plate
Assay type: physicochemical
Method: In the following example, the stability of solutions containing an acid component and different surfactants (surfactants) was evaluated. Solutions of 4.4% citric acid and 0.5% surfactant were prepared. The solutions were placed in clear glass bottles, and the bottles were placed on a hot plate to approximate accelerated aging conditions. The temperature of the liquids in the bottle was about 60° C., although some variations occurred depending upon the position of the bottle.

Sequence | Observations (stability of solution)
POLOXAMER 237 | Slightly cloudy after 64 days.
POLOXAMER 407 | Yellow precipitate formed at bottom
